Active and inactive are the calls of the source.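 Rule for the calls: active = fitted curve reaches 40% activation below the top valid tested dose, in every test run; inconclusive = test runs disagree on the call; inactive = the rest, including effects opposite to the expected direction.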
Assay: endothelial E-selectin upregulation by compounds – imaging, HUVEC, cherry-picked samples, dose response (AID 977605);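 note: signal is the share of imaged cells scored positive for E-selectin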
Details: HUVEC E-selectin immunostaining, at 10 µM (top of the series), percent of TNF-alpha response over vehicle

Compound	activation
C[C@@H]1CN([C@H](C)CO)C(=O)c2c(c3ccccc3n2C)-c2ccccc2CO[C@@H]1CN(C)Cc1ccccc1C(F)(F)F	0.002% (inactive)

Same assay, conditions: HUVEC E-selectin immunostaining, at 16 µM (top of the series), percent of TNF-alpha response over vehicle

Compound	activation
C[C@H](CO)N1C[C@H](C)[C@@H](CN(C)S(=O)(=O)c2cn(C)cn2)Oc2ccc(NC(=O)CCCCCC(=O)Nc3ccccc3N)cc2C1=O	-0.01% (inactive)

Same assay, conditions: HUVEC E-selectin immunostaining, at 19.5 µM (top of the series), percent of TNF-alpha response over vehicle

Compound	activation
C[C@H]1CN([C@@H](C)CO)C(=O)c2cc(NC(=O)NC3CCCCC3)ccc2O[C@@H]1CN(C)S(=O)(=O)c1ccc(Cl)cc1	2.58% (inactive)
COc1ccc(NC(=O)N(C)C[C@H]2Oc3ccc(NC(=O)c4ccncc4)cc3CC(=O)N([C@H](C)CO)C[C@H]2C)cc1	-0.01% (inactive)
CN(Cc1cccc2ncccc12)C(=O)CC1C(=O)NCCN1Cc1ccc(F)cc1 (stereo not drawn)	-0.111% (inactive)
COc1ccc(S(=O)(=O)Nc2ccc3c(c2)CC(=O)N([C@H](C)CO)C[C@H](C)[C@@H](CN(C)C(=O)NC2CCCCC2)O3)cc1	-0.163% (inactive)
Cc1noc(C)c1NC(=O)N(C)C[C@H]1Oc2ccc(NS(=O)(=O)c3c(C)noc3C)cc2C(=O)N([C@H](C)CO)C[C@@H]1C	-0.221% (inactive)
CN1C(=O)c2cc(NS(C)(=O)=O)ccc2OC[C@@H]2O[C@H](CC(=O)NCc3ccc(-c4ccccc4)cc3)CC[C@@H]21	-0.043% (inactive)
C[C@@H]1CN([C@@H](C)CO)C(=O)Cc2cc(NC(=O)Cn3cnnn3)ccc2O[C@H]1CN(C)C(=O)Nc1ccc(C(F)(F)F)cc1	-0.025% (inactive)
C[C@H]1CN([C@@H](C)CO)C(=O)c2cc(N(C)C)ccc2O[C@H]1CN(C)Cc1ccc(C(=O)O)cc1	0.082% (inactive)
Cc1c(C(=O)N2CCN(S(=O)(=O)c3cc(F)ccc3F)CC2)oc2ccccc12	-0.021% (inactive)
C[C@@H]1CN([C@H](C)CO)S(=O)(=O)c2ccc(-c3ccc(F)cc3)cc2O[C@@H]1CN(C)CC1CC1	0.158% (inactive)
COc1ccccc1CNC(=O)[C@@H]1CCCN1S(=O)(=O)c1ccc(Cl)cc1	-0.15% (inactive)
CCN(Cc1ccccc1)S(=O)(=O)c1ccc(OC)c2ncccc12	-0.178% (inactive)
NC(=O)C1CCN(c2nc(-c3ccccc3-c3ccccc3)cs2)CC1	0.136% (inactive)
C[C@@H]1CN([C@H](C)CO)C(=O)c2cc(NS(C)(=O)=O)ccc2O[C@@H]1CN(C)Cc1ccc(C(F)(F)F)cc1	-0.068% (inactive)
Cc1ccsc1CN(C)Cc1nc(C2CC2)no1	1.75% (inactive)
C[C@H](CO)N1C[C@H](C)[C@H](CN(C)S(=O)(=O)c2ccccc2)Oc2ccc(NC(=O)Nc3ccc(F)cc3)cc2CC1=O	0.322% (inactive)
COC(=O)C[C@@H]1CC[C@@H]2[C@H](COc3ccc(NC(=O)Nc4cccc(F)c4)cc3C(=O)N2C)O1	-0.161% (inactive)
Cc1ccccc1N(CC(=O)NC1CCCCC1)C(=O)CNC(=O)c1cccs1	0.744% (inactive)
C[C@@H]1CN([C@@H](C)CO)C(=O)c2cccc(NS(=O)(=O)c3cn(C)cn3)c2O[C@H]1CN(C)Cc1ccncc1	-0.172% (inactive)

Compound	activation
COc1ccc(CN(C)C[C@H]2Oc3ccc(NC(=O)Cn4cnnn4)cc3CC(=O)N([C@@H](C)CO)C[C@@H]2C)cc1	-0.061% (inactive)
Cc1noc(C)c1COc1ccccc1C(=O)N1CCN(S(=O)(=O)c2ccc(F)c(F)c2)CC1	0.069% (inactive)
C[C@H]1CN([C@@H](C)CO)C(=O)Cc2cc(NC(=O)Nc3ccccc3)ccc2O[C@H]1CN(C)C	0.067% (inactive)
C[C@H](CO)N1C[C@H](C)[C@@H](CN(C)C)Oc2ccc(NC(=O)CCCN(C)C)cc2CC1=O	-0.172% (inactive)
COc1ccc(-c2nnc3n2CCCCC3)cc1OC	0.027% (inactive)
Cc1c(C(=O)NCc2ccco2)oc2ccccc12	-0.246% (inactive)
COc1ccccc1CSc1nc2c(c(=O)n(C)c(=O)n2C)n1C	-0.003% (inactive)
COc1ccc(NC(=O)N(C)C[C@@H]2Oc3c(NS(=O)(=O)c4cn(C)cn4)cccc3C(=O)N([C@@H](C)CO)C[C@H]2C)cc1	-0.199% (inactive)
C[C@@H]1CN([C@@H](C)CO)C(=O)Cc2cc(NC(=O)Nc3ccc4c(c3)OCO4)ccc2O[C@H]1CN(C)C	-0.168% (inactive)
Cc1cc2cc(CNC(=O)c3ccc(S(=O)(=O)N4CCCCC4)cc3)ccc2n1C	0.135% (inactive)
C[C@@H]1CN([C@H](C)CO)C(=O)Cc2cc(NS(=O)(=O)c3ccc(F)cc3)ccc2O[C@@H]1CN(C)S(=O)(=O)c1ccc(Cl)cc1	1.34% (inactive)
COc1ccccc1-c1nnc(NC(=O)CSc2nncn2C)s1	-0.056% (inactive)
C[C@@H]1CN([C@@H](C)CO)C(=O)c2cc(NS(=O)(=O)c3cccs3)ccc2O[C@@H]1CN(C)C(=O)Nc1ccc2c(c1)OCO2	-0.086% (inactive)
C[C@@H]1CCCCO[C@@H](CN(C)S(C)(=O)=O)[C@@H](C)CN([C@H](C)CO)C(=O)c2cc(NC(=O)CCCN(C)C)ccc2O1	-0.145% (inactive)
COc1ccc(S(=O)(=O)N(C)C[C@@H]2Oc3ccc(NC(=O)Nc4c(C)noc4C)cc3C(=O)N([C@H](C)CO)C[C@@H]2C)cc1	-0.123% (inactive)
C[C@H](CO)N1C[C@H](C)[C@@H](CN(C)C)Oc2cc(C#Cc3ccccc3F)ccc2S1(=O)=O	0.115% (inactive)
COc1ccc(C(=O)N(CCc2ccccc2)Cc2ccccc2)c(OC)n1	-0.136% (inactive)
O=C(COC(=O)c1ccccc1NCCO)NNC(=O)c1cccs1	-0.279% (inactive)
CCCN1[C@H](CO)[C@H](c2ccc(C#Cc3ccccc3)cc2)[C@@H]1CNC1CCCC1	4.52% (inactive)

Compound	activation
C[C@@H]1CN([C@@H](C)CO)C(=O)Cc2cc(NC(=O)Cc3cn(C)c4ccccc34)ccc2O[C@H]1CN(C)Cc1ccc(C(F)(F)F)cc1	1.99% (inactive)
C[C@H](CO)N1C[C@H](C)[C@@H](CN(C)Cc2ccc(Oc3ccccc3)cc2)Oc2ccc(NC(=O)Nc3ccc(C(F)(F)F)cc3)cc2CC1=O	-0.23% (inactive)
Cc1cccc(NS(=O)(=O)c2csc(C(N)=O)c2)c1C	0.111% (inactive)
C[C@@H]1CN([C@@H](C)CO)C(=O)c2cccc(NC(=O)Nc3ccc4c(c3)OCO4)c2O[C@H]1CN(C)S(=O)(=O)c1ccc(F)cc1	-0.076% (inactive)
CC(=O)Nc1ccc(NC(=O)COc2ccc(Cl)cc2Cl)cc1	-0.194% (inactive)
C[C@@H]1CN([C@H](C)CO)C(=O)Cc2cc(NC(=O)CCN3CCOCC3)ccc2O[C@H]1CN(C)S(C)(=O)=O	0.606% (inactive)
Cc1ccc(S(=O)(=O)N(C)C[C@H]2Oc3ccc(NC(=O)CCCN(C)C)cc3C(=O)N([C@H](C)CO)C[C@H]2C)cc1	-0.247% (inactive)
CC(C)C[C@@H]1COc2cc(N3CCC[C@H]3CO)ccc2S(=O)(=O)N1	-0.153% (inactive)
Cc1noc(C)c1NC(=O)Nc1cccc2c1O[C@@H](CN(C)Cc1ccc(C(F)(F)F)cc1)[C@H](C)CN([C@@H](C)CO)C2=O	0.145% (inactive)
Brc1cnc2nc(SCc3nc4ccccc4[nH]3)[nH]c2c1	1.19% (inactive)
COc1ccc(NC(=O)CCCn2c(=S)[nH]c3ccccc3c2=O)cc1	1.61% (inactive)
COc1ccc(NC(=O)NC2(C(=O)N3CCOCC3)CCCCC2)cc1	0.439% (inactive)
COc1ccc(S(=O)(=O)Nc2ccc3c(c2)CC(=O)N([C@H](C)CO)C[C@H](C)[C@H](CN(C)C(=O)NC2CCCCC2)O3)cc1	-0.057% (inactive)
CC(C)NC(=O)N(C)C[C@@H]1Oc2ccc(NS(=O)(=O)c3cccs3)cc2CC(=O)N([C@@H](C)CO)C[C@H]1C	0.096% (inactive)
C[C@H](CO)N1C[C@H](C)[C@H](CN(C)C(=O)Nc2ccc(C(F)(F)F)cc2)Oc2ccc(NC(=O)Cn3cnnn3)cc2CC1=O	0.063% (inactive)
C[C@@H]1CCCCO[C@@H](CN(C)C(=O)Cc2ccccc2)[C@@H](C)CN([C@H](C)CO)C(=O)c2cc(NS(=O)(=O)c3cccs3)ccc2O1	0.129% (inactive)
Cc1c(N(C)C(=O)COc2ccc3ccccc3c2)c(=O)n(-c2ccccc2)n1C	-0.279% (inactive)
C[C@@H]1CN([C@@H](C)CO)C(=O)c2cc(C3=CCCCC3)cnc2O[C@H]1CN(C)C(=O)NC1CCCC1	-0.267% (inactive)
C[C@@H]1CN([C@@H](C)CO)C(=O)Cc2cc(NC(=O)C3CC3)ccc2O[C@@H]1CN(C)Cc1ccc2c(c1)OCO2	-0.129% (inactive)

Same assay, conditions: HUVEC E-selectin immunostaining, at 21 µM (top of the series), percent of TNF-alpha response over vehicle

Compound	activation
Cc1noc(C)c1NC(=O)N(C)C[C@@H]1Oc2ccc(NS(=O)(=O)c3cccs3)cc2CC(=O)N([C@H](C)CO)C[C@@H]1C	10.8% (inactive)
C[C@H]1CN([C@@H](C)CO)C(=O)Cc2cc(NC(=O)Nc3ccc(C(F)(F)F)cc3)ccc2O[C@H]1CN(C)C(=O)Nc1cccc2ccccc12	0.822% (inactive)
C[C@H](CO)N1C[C@H](C)[C@@H](CN(C)S(=O)(=O)c2ccc(F)cc2)Oc2ccc(NS(C)(=O)=O)cc2CC1=O	0.279% (inactive)
C[C@@H]1CN([C@H](C)CO)C(=O)c2cc(NS(=O)(=O)c3cn(C)cn3)ccc2O[C@@H]1CN(C)C(=O)Nc1ccc2c(c1)OCO2	-0.098% (inactive)
C[C@H]1CN([C@@H](C)CO)C(=O)Cc2cc(NC(=O)Nc3ccc4c(c3)OCO4)ccc2O[C@H]1CN(C)S(=O)(=O)c1cn(C)cn1	-0.009% (inactive)
C[C@@H]1CN([C@@H](C)CO)C(=O)Cc2cc(NC(=O)Cc3ccccc3)ccc2O[C@@H]1CN(C)Cc1ccncc1	-0.043% (inactive)
CC(C)NC(=O)Nc1ccc2c(c1)CC(=O)N([C@H](C)CO)C[C@H](C)[C@@H](CN(C)Cc1ccc(C(=O)O)cc1)O2	-0.068% (inactive)
COc1ccc(NC(=O)Nc2ccc3c(c2)C(=O)N([C@@H](C)CO)C[C@@H](C)[C@@H](CN(C)S(=O)(=O)c2ccc(F)cc2)O3)cc1	0.213% (inactive)
C[C@H](CO)N1C[C@H](C)[C@@H](CN(C)C)Oc2c(NC(=O)CCCCCC(=O)Nc3ccccc3N)cccc2C1=O	-0.097% (inactive)
